Results taken from patent publication US7700728B2, “Use of chimeric receptors in a screening assay for identifying agonists and antagonists of cell receptors” (Schering Corporation, priority 2005, dated 2010).

Experiments:
[1] = target: T1, chimeric TLR3/CD32a receptor (Homo sapiens, UniProt O15455); assay: Calcium mobilization in U937 cells transiently transfected with pTLR3/CD32a; assay type: cell-based
T1 construct: expressed in transfected cells; host or cells: U937 cells, transiently or stably transfected with pTLR3/CD32a (pMET7 vector)
T1 sequence (O15455 with tags, fused parts or gaps): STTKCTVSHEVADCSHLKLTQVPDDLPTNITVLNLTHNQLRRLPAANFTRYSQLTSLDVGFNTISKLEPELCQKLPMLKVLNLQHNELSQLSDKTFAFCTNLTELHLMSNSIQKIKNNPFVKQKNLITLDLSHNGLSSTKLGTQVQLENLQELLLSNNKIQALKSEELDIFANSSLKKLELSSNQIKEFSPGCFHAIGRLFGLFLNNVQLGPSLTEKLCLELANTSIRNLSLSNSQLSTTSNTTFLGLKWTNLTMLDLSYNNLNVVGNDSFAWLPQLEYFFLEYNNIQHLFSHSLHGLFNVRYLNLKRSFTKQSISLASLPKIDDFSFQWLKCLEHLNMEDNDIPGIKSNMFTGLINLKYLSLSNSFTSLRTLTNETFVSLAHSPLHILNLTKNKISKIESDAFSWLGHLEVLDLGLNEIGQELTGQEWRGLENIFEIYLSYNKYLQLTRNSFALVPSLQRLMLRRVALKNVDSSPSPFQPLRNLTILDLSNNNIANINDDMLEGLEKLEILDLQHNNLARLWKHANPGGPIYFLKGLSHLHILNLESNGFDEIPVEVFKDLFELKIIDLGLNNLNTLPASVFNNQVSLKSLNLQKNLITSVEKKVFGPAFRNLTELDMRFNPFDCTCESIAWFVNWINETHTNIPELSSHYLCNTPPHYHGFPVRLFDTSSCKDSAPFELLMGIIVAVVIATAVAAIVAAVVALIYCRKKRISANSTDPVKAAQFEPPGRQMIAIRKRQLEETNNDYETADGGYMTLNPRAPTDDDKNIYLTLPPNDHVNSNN
From the text: (§1) The hematopoietic cell line U937 was used for further biological investigation because of the ability of this cell line to display calcium mobilization upon cross-linking of endogenous CD32a using anti-CD32a antibodies followed by secondary antibody (as detected by fluorimetry following loading of the cells with Indo-1 or Fluo-4). Thus, U937 cells express all of the cellular components required for calcium mobilization mediated through CD32a activation.
(§2) Transient transfection of the pTLR3/CD32a and pTLR2/CD32a expression vectors into U937 allowed high level cell surface expression of the chimeric molecule as detected with anti-TLR3 or anti-TLR2 antibodies, while no expression was observed on untransfected cells or cells transfected with the other chimeric vector.
Poly-IC, a synthetic double-stranded RNA ligand for TLR3, was then tested for its ability to stimulate the chimeric TLR3/CD32a receptor. Poly(I) (15, 30 and 40 mers) and poly(C) (15, 30 and 40 mers) (Ambion, Huntingdon, Cambridgeshire, U.K. and Invitrogen, Cergy Pontoise, France respectively) were annealed in equal proportions according to their size for 15 minutes at 95° C. Independently, fragmentation of high molecular weight poly-IC (>5000 bp) was performed by metal-induced hydrolysis as recommended by Affymetrix (High Wycombe, UK). Briefly, 200 μg poly-IC was incubated with 40 μl of 5×RNA fragmentation buffer (200 mM Tris-acetate, pH 8.1, 500 mM KOAc, 150 mM MgOAc) in a final volume of 200 μl, for 35 min at […]. Fragmented poly-IC (100-200 bp) was then allowed to reach room temperature before purification. The relative sizes of dsRNA fragments were examined by electrophoresis in 2% agarose gel.

[2] = test system: chimeric TLR2/CD32a receptor; assay: Calcium mobilization in untransfected U937 cells or cells transfected with pTLR2/CD32a (specificity control); assay type: cell-based, human
Chain of chimeric TLR2/CD32a receptor (as listed by the source, change not shown): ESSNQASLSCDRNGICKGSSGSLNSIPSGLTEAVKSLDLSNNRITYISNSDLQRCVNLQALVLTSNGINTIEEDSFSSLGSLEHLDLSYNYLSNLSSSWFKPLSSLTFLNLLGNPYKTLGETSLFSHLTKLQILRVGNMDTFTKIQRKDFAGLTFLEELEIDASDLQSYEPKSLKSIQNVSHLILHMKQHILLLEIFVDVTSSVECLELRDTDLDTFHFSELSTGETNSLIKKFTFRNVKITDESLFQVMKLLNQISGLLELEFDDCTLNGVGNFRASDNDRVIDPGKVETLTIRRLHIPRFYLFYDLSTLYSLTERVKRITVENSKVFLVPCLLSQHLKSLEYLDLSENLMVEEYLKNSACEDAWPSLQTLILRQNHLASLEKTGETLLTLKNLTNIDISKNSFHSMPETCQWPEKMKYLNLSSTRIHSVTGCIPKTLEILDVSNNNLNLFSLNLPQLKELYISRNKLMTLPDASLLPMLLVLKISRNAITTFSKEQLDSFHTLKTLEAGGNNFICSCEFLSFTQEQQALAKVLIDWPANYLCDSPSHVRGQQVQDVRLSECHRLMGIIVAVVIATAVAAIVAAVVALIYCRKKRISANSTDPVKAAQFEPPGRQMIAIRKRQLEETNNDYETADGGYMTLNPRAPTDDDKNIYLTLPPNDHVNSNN
From the text: as §1, §2

[3] = target: T1, chimeric TLR3/CD32a receptor; assay: Calcium mobilization in U937 clones stably transfected with pTLR3/CD32a; assay type: cell-based
From the text: U937 cells were stably transfected with pTLR3/CD32a using co-transfection with an antibiotic-encoding plasmid and antibiotic selection followed by limiting dilution cloning. Clones were selected based on their cell surface expression level of TLR3. […] These clones expand very easily (up to 10^9 cells) and can be maintained for several months in culture without losing the expression of the chimeric receptor. […] Such stable clones provide a useful method for high through-put screening of candidate agents for the identification of TLR agonists and antagonists.

[4] = target: T1, chimeric TLR3/CD32a receptor; assay: Effect of extracellular pH on calcium mobilization in U937 cells expressing chimeric TLR3/CD32a; assay type: cell-based; conditions: pH range 5.5-7.5
From the text: Wild type TLR3 has previously been described as an intracellular receptor, at least in dendritic cells (DC), and interaction with its ligand occurs in early endosomes. […] U937 cells expressing the chimeric human TLR3/CD32a receptor at the cell surface were used to investigate the effect of the extracellular pH on poly-IC-mediated calcium mobilization.

[5] = test system: chimeric TLR3/CD32a receptor lacking two N-glycosylation sites (N196 and N247); assay: NFκB luciferase reporter in HEK 293 cells co-transfected with chimeric TLR3/CD32a lacking two N-glycosylation sites; assay type: cell-based, human
From the text: In order to determine the role of glycosylation in ligand recognition by TLR3, a chimeric TLR3/CD32a receptor lacking two N-glycosylation sites (N196 and N247 as numbered at Genbank Acc. No. NP_003256) was generated by site-directed mutagenesis and co-transfected into HEK 293 cells with a reporter plasmid containing concensus NFκB sites which, when activated, directs the expression of firefly luciferase.

PBMC = assay: Cytokine induction in PBMC; assay type: cell-based

## poly-IC
[1]; U937 transiently transfected with pTLR3/CD32a, fluorimetry with Indo-1 or Fluo-4
  calcium mobilization: immediate calcium mobilization of similar intensity to that induced by anti-TLR antibodies
[1]; dose response, transiently transfected U937
  dose required to detect biological response (calcium mobilization): 0.025 μg/ml
[1]; optimal concentration, second stimulation with poly-IC or anti-TLR3-mediated cross-linking
  response to a second stimulation after sequential stimulation: desensitization
[2]
  calcium mobilization: no calcium mobilization
[3]; stable U937 clones
  sensitivity in dose response (calcium mobilization): 10 to 30 ng/mL
[3]; stable U937 clones with cell surface expression of the chimeric receptor
  calcium mobilization: robust calcium mobilization
[4]
  pH required for optimal response (calcium mobilization): 6.5
  pH that prevented biological response (calcium mobilization): ≥ 7.2
[5]
  activity on mutant TLR3 (NFκB luciferase reporter): completely inactive
PBMC
  dose required to detect cytokine induction: 2.5 µg/mL
